Measurements as given in patent US20240366536A1, “MODULATORS OF A POTASSIUM CHANNEL AND OF TRPV1 CHANNEL AND USES THEREOF” (Bsense Bio Therapeutics Ltd., priority 2022, published 2024).
Values after ≈ are worked out from the molar mass of the structure shown. Where two headings read alike, the source gives them in different places.

How the values were obtained:
[1] = target: T1, hERG (Homo sapiens (Human), UniProt Q12809); experiment: cell-based
[2] = LogD measurement at pH 7.4; format: physicochemical
[3] = target: human Kv7.2/3 channels (Homo sapiens (Human), UniProt O43525+O43526); experiment: High content screen (HCS) FLIPR Potassium (thallium flux) assay, CHO/hKv7.2/3 cell line; format: cell-based; conditions: head prints IC50; channel activation in CHO/hKv7.2/3, fluorescent HCS; read-out: Kv7.2/7.3 IC50
Experimental: Cell culture: […] To maintain the stability of human Kv7.2/7.3 expression antibiotic selection was added (Puromycin g/ml). High content screen (HCS) using FLIPR Potassium Assay Kit: FLIPR Potassium Assay Kit ([…] FLIPR Potassium Assay Explorer Kits, Molecular Devices) was used with the CHO/hKv7.2/3 cell line to screen molecules against the hKv7.2/7.3 ion channel target. The assay exploits the permeability of thallium ions (Tl+) through potassium (K^+) channels. In this assay, Tl+ indicator dye is used to produce a bright fluorescent signal upon the binding to Tl+ conducted through the potassium channels. The intensity of the Tl+ signal is proportional to the number of potassium channels in the open state. Therefore, it provides a functional indication of the potassium channel activity. To activate the voltage-gate potassium channels, the cells were stimulated with a mixture of K+ and Tl+ to depolarize the cell membrane. The fluorescence increase in the assay represents the influx of Tl+ into the cell specifically through the potassium channel, providing a functional read-out of hKv7.2/3 activity using a fluorescent plate reader coupled with injectors used to activate the channels. […] Tecan Spark reader plate injectors were primed with Tl+ (1 mM Tl2SO4) or Tl++K+ (1 mM Tl2SO4; 5 mM K2SO4) for channel activation and data correction. […]

[4] = Metabolic stability in human liver microsomes (HLM Clint); format: in vitro ADME
[5] = target: T2, hTRPV1 (Homo sapiens (Human), UniProt Q8NER1); experiment: High content screen (HCS) Fluo-8 No Wash calcium flux assay, capsaicin activation, CHO cells expressing hTRPV1; format: cell-based; conditions: CHO cells expressing hTRPV1, fluorescent HCS; read-out: TRPV1 IC50
[6] = Solubility assay (kinetic solubility); format: physicochemical; parameters: Kinetic Sol.: unit not given here
[7] = target: T1, hERG; experiment: in vitro; conditions: hamster, CHO cells that express human hERG
[8] = system: primary neonatal rat DRG neurons; experiment: Rat DRG neuron firing, current-induced and capsaicin-induced (current clamp); format: cell-based
Excerpt: rDRGs isolation and primary cell culture: Briefly, rat DRGs from all spinal levels were carefully removed and collected in HBSS on ices, connective tissue of the epineurium surrounding the ganglion was removed and cells were dissociated using Collagenase-II and trypsin dissociation solutions. DRGs were dissociated further, passed through glass Pasteur pipettes to obtain single cells. Then dissociation solution was changed to 5% FBS containing DRG neuronal culture medium and plated onto ECL coated 12 mm cover glass.
Additional rDRGs experiments were performed using Lonza primary neonatal rat (Sprague Dawley neonatal; P2,3) DRG neurons (R-DRG-505, Lonza) plated and cultured according to the manufacturer.
These cryopreserved DRG cells were prepared from freshly isolated and dissociated spinal cord dorsal root ganglia and comprise a normal distribution of neurons and glia (schwann cells).
Electrophysiology: Cells were used for electrophysiological recording in the 48 hours following rDRG isolation. Round small neurons (20-40 m in diameter) were selected for electrophysiology recordings, to select for small nociceptive neurons that propagate pain sensation in vivo and that are expressing both Kv7.2/3 and TRPV1 targets. Membrane excitability was monitored using current clamp. Positive current steps of different amplitude were injected (400 ms) to induce spikes trains before and following compound application.
The inhibitory potency of the newly designed compounds was studied on neuronal excitability in an experimental system of high physiological relevance, primary neonatal rat DRG neurons (Sprague Dawley neonatal; P2,3; R-DRG-505, Lonza). These cryopreserved DRG cells are prepared from freshly isolated and dissociated spinal cord dorsal root ganglia and comprise a normal distribution of neurons and glia (schwann cells).
The inhibitory potency was tested both on current-induced and Capsaicin-induced neuronal activity.

[9] = target: T2, hTRPV1; experiment: TRPV1 electrophysiology in CHO cells co-expressing hKv7.2/3 and hTRPV1; format: cell-based; conditions: also when co-applied with retigabine
Excerpt: To exemplify the functional coupling of Kv7.2/3 and TRPV1, stably expressing Kv7.2/3 cells were transfected with human TRPV1 and their response to current ramp to −40 mV (Kv activation) and capsaicin (TRPV1 activation) was examined electrophysiologically.

[10] = target: T1, hERG; experiment: hERG FLIPR Potassium assay, CHO/hERG cell line; conditions: at the concentration given as hERG IC50 bound
[11] = system: human sensory neurons; experiment: Spontaneous activity of human sensory neurons differentiated from hNPCs; format: cell-based; conditions: 5 μM, reversible
Experimental: Cell culture and differentiation: Human PSC-derived neural progenitor cells (Stem Cell Catalog No. 70901 and 70902) were cultured and expanded on Matrigel coated 6-wells plates, using neuronal progenitor medium containing: Neurobasal media supplemented by non-essential amino-acids, 1%; Glutamax, 1%; B27, 2%, FGF2, 20 ng/ml). hNPC were then plated onto PDL and Matrigel coated 12 mm coverglass at a density of about 50,000 cells/well of a 6 well, in DMEM/F12; 10% KSR; 1% P/S and A83-01 (2 M) from days 0-5. From days 0-9 the medium contained also CHIR99021 (6 μM). From Day 3-9 the medium included R04929097 (2 μM) and SU5402 (3 μM). From day 9 and onwards, the media change (Neurobasal Media contains: NT-3; BDNF; NGF; GDNF) was performed every other day by replacing only 50% of the media after CO2 equilibrating. […]
Electrophysiology: To characterize the neuronal properties with electrophysiology recordings, round small neurons (20-40 μm in diameter) were selected from day 31 and onwards. Cells were monitored for their polarized negative membrane potential and for their ability to evoke consistent spikes train responses to repeated positive current injections as a mark of achieving electrical maturation before testing the effect of the tested compounds on neuronal excitability. Membrane excitability was monitored using current clamp. […]

[12] = system: NGF-treated rat DRG neurons; experiment: Neuropathic model in rat DRGs (NGF pretreatment, capsaicin induced tetanic burst); format: cell-based; conditions: NGF 100 ng/ml pretreatment, compound at 100 nM
Experimental: FIG. 8B presents representative data obtained in assays in which neurons were pretreated with NGF 100 ng/ml for 4-5 days. NGF Non-treated rat DRGs were stimulated by repeated capsaicin application with and without 421-6 at 2 μM (top panel) or 100 nM (Middle panel).
DRGs treated with NGF show tetanic action potential burst in response to CAP application, mimicking neuropathic like response. See, Background Art FIG. 8A. NGF enhances TRPV1 function using Calcium-dependent fluorescence, F, relative to maximal fluorescence, Fmax, as a function of time from a single HEK293 cell stably transfected with TrkA and transiently transfected with hTRPV1. Pulses of capsaicin (100 nM, applied as shown at top) elicited submaximal increases in [Ca]i. Exposure to NGF (100 ng/ml, see top) enhanced the capsaicin induced calcium increase. Arrows show responses used for calculation of sensitization ratio.

[13] = system: Kv7.3/5, Kv7.4; conditions: positive control, Kv7.3/5, Kv7.4 assay; read-out: Known IC50; cited from earlier work

T1 sequence (Q12809 whole entry): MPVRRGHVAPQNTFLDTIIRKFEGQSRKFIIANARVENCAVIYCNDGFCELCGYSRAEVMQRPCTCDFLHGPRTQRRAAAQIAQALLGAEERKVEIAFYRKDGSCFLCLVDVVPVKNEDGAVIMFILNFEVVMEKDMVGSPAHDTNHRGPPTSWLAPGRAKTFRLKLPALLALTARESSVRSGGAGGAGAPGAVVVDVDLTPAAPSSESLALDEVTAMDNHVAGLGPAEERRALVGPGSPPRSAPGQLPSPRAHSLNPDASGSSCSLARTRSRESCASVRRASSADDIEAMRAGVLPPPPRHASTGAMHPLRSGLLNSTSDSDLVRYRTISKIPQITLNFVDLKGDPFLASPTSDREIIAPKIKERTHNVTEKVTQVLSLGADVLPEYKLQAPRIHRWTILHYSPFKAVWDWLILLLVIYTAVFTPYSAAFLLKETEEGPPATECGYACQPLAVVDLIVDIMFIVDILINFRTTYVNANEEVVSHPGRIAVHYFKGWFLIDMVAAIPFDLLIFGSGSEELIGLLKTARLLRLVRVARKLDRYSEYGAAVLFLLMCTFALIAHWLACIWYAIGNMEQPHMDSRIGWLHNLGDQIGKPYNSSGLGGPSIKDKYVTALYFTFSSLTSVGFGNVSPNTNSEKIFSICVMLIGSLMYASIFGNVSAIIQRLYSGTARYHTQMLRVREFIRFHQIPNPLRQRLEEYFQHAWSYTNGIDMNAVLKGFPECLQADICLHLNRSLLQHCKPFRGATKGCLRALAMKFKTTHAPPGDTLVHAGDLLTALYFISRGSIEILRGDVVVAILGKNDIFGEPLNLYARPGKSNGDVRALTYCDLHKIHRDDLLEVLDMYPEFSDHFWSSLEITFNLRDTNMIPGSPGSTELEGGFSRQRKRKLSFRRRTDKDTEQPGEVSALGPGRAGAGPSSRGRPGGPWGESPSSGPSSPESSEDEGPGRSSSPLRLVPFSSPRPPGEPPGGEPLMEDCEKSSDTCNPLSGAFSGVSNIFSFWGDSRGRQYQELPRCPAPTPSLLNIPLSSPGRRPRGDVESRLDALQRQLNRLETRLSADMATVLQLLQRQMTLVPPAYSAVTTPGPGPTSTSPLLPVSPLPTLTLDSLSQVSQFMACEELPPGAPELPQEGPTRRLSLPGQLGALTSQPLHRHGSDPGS
T2 sequence (Q8NER1 whole entry): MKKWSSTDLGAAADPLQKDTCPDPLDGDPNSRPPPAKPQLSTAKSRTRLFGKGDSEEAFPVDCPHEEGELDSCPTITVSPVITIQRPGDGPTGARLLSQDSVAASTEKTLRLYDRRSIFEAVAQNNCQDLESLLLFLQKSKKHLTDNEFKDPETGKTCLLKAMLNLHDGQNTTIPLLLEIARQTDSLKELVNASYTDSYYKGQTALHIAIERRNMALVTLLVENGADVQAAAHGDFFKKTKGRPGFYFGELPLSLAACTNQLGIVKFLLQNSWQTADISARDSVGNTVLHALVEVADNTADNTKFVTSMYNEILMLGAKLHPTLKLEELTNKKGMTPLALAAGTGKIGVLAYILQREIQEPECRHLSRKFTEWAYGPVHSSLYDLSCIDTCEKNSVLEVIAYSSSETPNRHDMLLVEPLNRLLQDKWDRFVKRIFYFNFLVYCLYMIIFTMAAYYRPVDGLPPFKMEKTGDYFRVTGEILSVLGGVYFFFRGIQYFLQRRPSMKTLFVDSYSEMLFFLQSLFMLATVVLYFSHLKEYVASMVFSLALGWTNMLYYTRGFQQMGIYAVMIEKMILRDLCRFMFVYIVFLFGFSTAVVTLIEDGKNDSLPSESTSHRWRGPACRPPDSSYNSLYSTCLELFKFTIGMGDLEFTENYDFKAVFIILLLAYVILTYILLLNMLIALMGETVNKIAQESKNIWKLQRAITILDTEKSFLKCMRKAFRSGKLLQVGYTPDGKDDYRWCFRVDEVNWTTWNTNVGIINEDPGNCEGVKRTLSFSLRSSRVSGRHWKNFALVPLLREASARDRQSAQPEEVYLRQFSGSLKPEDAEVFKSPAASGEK

| Structure (SMILES) | HLM Clint [4] [µL/min/mg] | hERG, percent in parentheses beside the IC50 bound [10] | LogD [2] | Kinetic Sol. [6] | other results |
| --- | --- | --- | --- | --- | --- |
| CC(C)c1cc(Cl)cc(Cl)c1C(O)c1ccc(F)c(CC(=O)NCC2(O)CCC2)c1 (racemic) [Compound 533] |  |  |  |  | IC50 [1]: > 50 µM; LogD ([2]; lipid phase / aqueous phase, read-out: LogD): 4.36; IC50 [3]: 1.5 µM; microsomal CLint [4]: 658 µL/min/mg; IC50 [5]: 21.2 µM; solubility kinetic at 10 min ([6]; HHBS buffer with 0.2% DMSO, aqueous with cosolvent or surfactant or cyclodextrin, kinetic from dmso stock, read-out: Kinetic Sol.): 41 µM (≈ 18.6 µg/mL); inhibition at 1.5 h, 50 µM [7]: 0%; capsaicin-evoked rat DRGs spiking ([8]; 100 nM): inhibition is gained; current-evoked rat DRGs spiking ([8]; 100 nM): inhibition decreases |
| CC(C)(C)c1ccc(/C=C/C(=O)Nc2ccc3c(c2)OCCO3)cc1 [AMG9810, reference compound] |  |  |  |  | TRPV1-inhibition potency gain in cells co-expressing hKv7.2/3 and hTRPV1 [9]: failure to gain TRPV1-inhibition potency; reduction of Capsaicin evoked firing ([8]; 50 nM): about 50% |
| COC[C@@H](CO)NC(=O)Cc1cc(Sc2c(Cl)cc(Cl)cc2C(C)C)ccc1F [Compound 414] | 686 | (0%) |  |  |  |
| COC[C@@H](CO)NC(=O)Cc1cc(Sc2c(Cl)cc(F)cc2C(C)C)ccc1F [Compound 415] | 839 | (0%) | 4.25 | 26.7 | spontaneous neuronal activity [11]: significantly reduced |
| CC(C)c1cc(Cl)cc(Cl)c1C(=O)c1ccc(F)c(CC(=O)NCC(C)(C)O)c1 [Compound 417-4] | 91.84 | (0%) | 4.08 | 66 |  |
| CC(C)c1cc(Cl)cc(Cl)c1C(O)c1ccc(F)c(CC(=O)NCC(C)(C)O)c1 (stereo not drawn) [Compound 417] | 89.1 | (0%) |  |  |  |
| Cc1cn(-c2ccc(F)c(CC(=O)NCC(C)(C)O)c2)c2c(Cl)cc(Cl)cc12 [Compound 421-6] |  | (0%) |  |  | capsaicin induced tetanic action potential burst [12]: alleviates; inhibition of current induced AP activity ([8]; 100 nM): 10.1±3.4%; inhibition of current induced AP responses ([8]; 500 nM): 51.2±8.4%; inhibition of the capsaicin induced AP response ([8]; 500 nM): 86.5±8.4%; inhibition of AP response to Capsaicin activation ([8]; 2 μM): 97.9±2.1%; inhibition of AP response to current activation ([8]; 2 μM): 77.7±5.6% |
| CC(C)c1cc(Cl)cc(Cl)c1C(=O)c1ccc(F)c(CC(=O)NCC2(O)CCC2)c1 [Compound 569] | 120 |  | 4.47 | 27 |  |
| CC(C)c1cc(Cl)cc(Cl)c1C(=O)c1ccc(F)c(CC(=O)NCC2(O)CC2)c1 [Compound 573] | 441 |  | 4.34 | 24 |  |
| O=C(Cc1cncc(-n2cc(Cl)c3cc(Cl)cc(Cl)c32)c1)NCCO [Compound 649] | 27.3 |  | 4.19 | 10 |  |
| O=C(Cc1cncc(-n2cc(Cl)c3cc(Cl)cc(Cl)c32)c1)N[C@@H]1COC[C@H]1O [Compound 661] | 72 | (0%) | 3.55 | 40 |  |
| O=C(Cc1cncc(-n2cc(Cl)c3cc(Cl)cc(Cl)c32)c1)N[C@H]1COC[C@@H]1O [Compound 663] | 53.6 |  | 3.52 | 26 |  |
| CCOC(=O)Nc1ccc(NCc2ccc(F)cc2)cc1N [Retigabine, N-(2-amino-4-(4-fluorobenzylamino)-phenyl)carbamic acid ethyl ester] |  |  |  |  | IC50 [13]: 1.5 to 5 µM |
